This note sets out measurements from patent US9370186B2 (priority 2012, dated 2016).

Structures are written as SMILES. In brackets after ≈: the same amount, converted by molar mass. Where two headings read alike, the source gives them in different places.

In test [1] the test system is Phytophthora infestans. Type of test: in vivo. The settings on record: tomatoes, 3 days after inoculation.
The test system of test [2] is Phytophthora infestans. Nature of the test: whole plant or invertebrate. Type of test: in vivo. Conditions: for Practical dose for 70% efficacy: EC70, compound alone, preventive 24 h, potato leaf discs; for EC50: Phytophthora infestans, in Solanum tuberosum, foliar, 24 h, read-out: Practical dose for 50% efficacy.

On to `CCNc1nc(CC)c(C(=O)NC(C#N)c2cccs2)s1` (centres unmarked) [ethaboxam, N-(cyano-2-thienylmethyl)-4-ethyl-2-(ethylamino)-5-thiazolcarboxamide], for which the “Efficacy in % found” value in test [1] (5 ppm a.i.) was 40%. Also, the “Practical dose for 70% efficacy” value in test [2] is 27.820 mg a.i./L. Further, the EC50 in test [2] came out at 15.3 µg/mL (≈ 47.7 µM). The “Efficacy (%) ethaboxam alone” value in test [2] (ethaboxam 0.75 mg a.i./L) was 0%; in test [2] (ethaboxam 1.5 mg a.i./L) it was 0%; in test [2] (ethaboxam 3 mg a.i./L), 5%; in test [2] (ethaboxam 6 mg a.i./L), 13%; in test [2] (ethaboxam 12 mg a.i./L), 67%; in test [2] (ethaboxam 24 mg a.i./L), 73%. The “Efficacy (%) ethaboxam alone” value in test [2] (ethaboxam 75 mg a.i./L) is 75%.
With `CSC1=N[C@@](C)(c2ccccc2)C(=O)N1Nc1ccccc1` [fenamidone, (S)-3,5-dihydro-5-methyl-2-(methylthio)-5-phenyl-3-(phenylamino)-4H-imidazol-4-one], in test [1] (0.5 ppm a.i.), the “Efficacy in % found” value is on record as 28%. The “Practical dose for 70% efficacy” value in test [2] is given as 9.764 mg a.i./L. In addition, the EC50 in test [2] worked out at 6.26 µg/mL (≈ 20.1 µM). The “Efficacy (%) fenamidone alone” value was 0% in test [2] (fenamidone 0.5 mg a.i./L); 0% in test [2] (fenamidone 1 mg a.i./L); 5% in test [2] (fenamidone 2 mg a.i./L); 29% in test [2] (fenamidone 4 mg a.i./L); 83% in test [2] (fenamidone 8 mg a.i./L); 82% in test [2] (fenamidone 16 mg a.i./L). In test [2] (fenamidone 50 mg a.i./L), the “Efficacy (%) fenamidone alone” value is 91%.
